The conditions of series [1]: 101.33 kPa, Liquid, Vibrating tube method.
The nature of series [2]: refractive index (Na D-line) (dimensionless). To be noted: 298.2 K; 101.33 kPa; Liquid; Standard Abbe refractometry.

Each structure is given as a SMILES string. ± gives the expanded uncertainty stated by the source.

`CCCCC(CC)CO` (centres undefined) [2-ethyl-1-hexanol]: the mass density in series [1] (298.2 K) came out at 830.57 ± 0.31 kg/m3. Moreover, in series [2], the refractive index stood at 1.4293 ± 0.0005.

`CC(=O)OCC(C)C` [2-methylpropyl ethanoate]: the mass density in series [1] (293.15 K) is reported as 866.58 ± 0.31 kg/m3. Further, the refractive index in series [2] is listed as 1.3878 ± 0.0005.

Regarding `O` [water], the refractive index in series [2] came out at 1.3325 ± 0.0005.

As for `O=C1CCCCC1` [cyclohexanone], the mass density in series [1] (298.2 K) is given as 943.04 ± 0.32 kg/m3. Besides, the refractive index in series [2] was determined as 1.4503 ± 0.0005.

As to `CCCCCCCCO` [octan-1-ol], the mass density in series [1] (298.2 K) is 824.1 ± 0.31 kg/m3. The refractive index in series [2] was determined as 1.427 ± 0.0005.

In general, mass density refers to the mass of a sample divided by its volume. What is called refractive index is a measure of how strongly the sample bends light.

(Values after the NIST ThermoML archive (doi:10.1016/j.jct.2012.10.028).)
